Experimental data published in patent US12403129B2, “Isotope-enriched 3-amino-1-propanesulfonic acid derivatives for the treatment of cerebrovascular disease” (RISEN (SUZHOU) PHARMA TECH CO., LTD., priority 2021, dated 2025).
“Also recorded” adds a separate entry of the source.

Columns and labels:
SYP = SYP expression by Western blotting, multiple cerebral infarction dementia rats; type: in vivo, SD rats; settings: compared with the model group, p<0.05
Protocol: 135 SPF grade SD rats (75 females, 60 males, weighing 200-220 g) were used. Anesthesia was performed by intraperitoneal injection of 3.5% chloral hydrate (350 mg/kg). After dorsal fixation, neck hair removal and iodophor disinfection, animals were cut along the middle of the neck to separate the right common carotid artery, external carotid artery and internal carotid artery. […]
The main pathological indexes included investigation of the improvement of learning and memory impairment in the dementia model animal by test compound using behavioral experimental methods such as Y maze, new object discrimination, Morris water maze and passive avoidance test (dark avoidance); investigation of the protective effect of test compound on mitochondria by detecting the content of ATP in hippocampus and cortex of rats; and investigation of levels of oxidative stress in the rat brain by measuring activity of superoxide dismutase (SOD, which is an oxygen free-radical scavenger), glutathione peroxidase (GSH-Px, which scavenges lipid peroxides induced by reactive oxygen species and —OH), nitric oxide synthase (NOS), malondialdehyde (MDA), and nitric oxide (NO). […] Expression of synaptic associated proteins SYP and PSD95 was detected by Western blotting. […] Experimental results were statistically analyzed using IBM SPSS 21.0 software. […]

[1] = system: rat model of dementia caused by multiple cerebral infarction; assay: Cognitive tests in rat model of dementia caused by multiple cerebral infarction; type: in vivo, SD rats; settings: for Discrimination coefficient for new objects, p compared with model group / Priority index for new objects, p compared with model group: n = 12-14
Protocol: 135 SPF grade SD rats (75 females, 60 males, weighing 200-220 g) were used. Anesthesia was performed by intraperitoneal injection of 3.5% chloral hydrate (350 mg/kg). After dorsal fixation, neck hair removal and iodophor disinfection, animals were cut along the middle of the neck to separate the right common carotid artery, external carotid artery and internal carotid artery. The common carotid artery was temporarily clamped by the artery clamp, the left external carotid artery was retrogradely punctured to the beginning of the left internal carotid artery with a pediatric scalp needle, and then 0.4 ml of embolic normal saline suspension was slowly injected with a syringe (the preparation of embolic normal saline suspension was as follows: blood was collected from the abdominal aorta of the same rat, dried naturally in a 37° C. incubator, and prepared for 80-200 minutes to form a blood clot; during application, 0.3 ml normal saline was added to every 10 mg blood clot), and the common carotid artery clamp was opened at the same time, then the external carotid artery was ligated and the skin was sutured. In the sham operation group, 0.4 ml normal saline was used instead of embolic suspension. The experimental animals were randomly divided into 6 groups according to weight balance, as follows: sham operation group, model group, positive control group (donepezil) and test compound group (different doses). There were 12-14 rats in each group. The animals in each group began to give drugs by gavage after modeling until the end of the experiment. The animals underwent Y maze experiment on the 16th day of administration, new object discrimination experiment on the 17th-20th day, Morris water maze experiment on the 22nd-27th day, and dark avoidance experiment on the 28th-29th day. On the 30th day, animals were sacrificed and tissues harvested for analysis.
The main pathological indexes included investigation of the improvement of learning and memory impairment in the dementia model animal by test compound using behavioral experimental methods such as Y maze, new object discrimination, Morris water maze and passive avoidance test (dark avoidance); investigation of the protective effect of test compound on mitochondria by detecting the content of ATP in hippocampus and cortex of rats; and investigation of levels of oxidative stress in the rat brain by measuring activity of superoxide dismutase (SOD, which is an oxygen free-radical scavenger), glutathione peroxidase (GSH-Px, which scavenges lipid peroxides induced by reactive oxygen species and —OH), nitric oxide synthase (NOS), malondialdehyde (MDA), and nitric oxide (NO). The ultrastructure of nerve cells (including nucleus, mitochondria and synapse) was investigated using immunofluorescence and transmission electron microscope. Expression of synaptic associated proteins SYP and PSD95 was detected by Western blotting. Experimental results for compound 4 on the concentration of nitric oxide (NO), the activity of nitric oxide synthase (NOS) and the ultrastructure of nerve cells in the rat model of dementia caused by multiple cerebral infarction are shown in FIGS. 7-11. Experimental results were statistically analyzed using IBM SPSS 21.0 software. The differences between groups were compared by one-way ANOVA or two-way ANOVA (water maze directional navigation) and LSD test.

[2] = cited from earlier work
[3] = system: neuronal cells in hippocampal CA1 area and CA3 area and cerebral cortex; assay: Neuronal cell morphology in ischemia-reperfusion dementia mice; type: in vivo, C57BL/6J mice; settings: compared with the model group
Protocol: (§1) 140 healthy C57BL/6J mice, including 70 males and 70 females, were used. 1% Pentobarbital Sodium (50 mg/kg) was injected intraperitoneally to anesthetize the mice. The back position was fixed, the neck hair was removed, and the common carotid arteries were cut along the middle of the neck after iodophor disinfection. The common carotid arteries were separated, clamped with a noninvasive artery clamp for 15 minutes, released for 10 minutes, and then clamped for 10 minutes. Penicillin powder was then applied to suture muscles and skin. The sham operation group was not clamped, and other operations were the same as for the model group. […] Mice were divided into 6 groups: sham operation group, model group, positive control group (donepezil) and test compound group (different doses). Test compounds were administered by gavage to each group on the next day of modeling. The compound group was given compounds once a day in the morning and evening, and the volume of each gavage was 10 ml/kg. Half of the animals in the sham operation group and the model group were given the same amount of distilled water, and half of the animals were given the same amount of 1% sodium carboxymethylcellulose solution. […]
(§2) The main pathological index included: investigation of the improvement of learning and memory impairment by the compound in the pathogenic model of cerebral ischemia-reperfusion using behavioral experimental methods such as Y maze, new object discrimination, spontaneous activity, Morris water maze and passive avoidance experiment (dark avoidance); investigation of the ultrastructure of nerve cells (including nucleus, mitochondria and synapse) by HE staining and immunofluorescence; detection of expression of synaptic associated proteins SYP and PSD95 by Western blotting; and detection of expression of apoptosis-related proteins Bcl-2 and Bax by Western blotting. […] Experimental results were analyzed statistically using IBM SPSS 21.0 software. […]

PSD95 = PSD95 expression in hippocampus by Western blotting, ischemia-reperfusion dementia mice; type: in vivo, C57BL/6J mice
Protocol: Compound 4, 85 mg/kg, bid; D. Compound 4, 170 mg/kg, bid; E. Compound 4, 340 mg/kg, bid; F. Donepezil, 1.3 mg/kg. Compared with sham operation group: ### P<0.001; Compared with the model group: ** P<0.01, *** P<0.001.
as §1, with “ml/kg.” for “ml/kg. Half of the animals in the sham operation group and the model group were given the same amount of distilled water, and half of the animals were given the same amount of 1% sodium carboxymethylcellulose solution.”

Bax = Bax expression by Western blotting, ischemia-reperfusion dementia mice; type: in vivo, C57BL/6J mice
Protocol: 140 healthy C57BL/6J mice, including 70 males and 70 females, were used. 1% Pentobarbital Sodium (50 mg/kg) was injected intraperitoneally to anesthetize the mice. The back position was fixed, the neck hair was removed, and the common carotid arteries were cut along the middle of the neck after iodophor disinfection. The common carotid arteries were separated, clamped with a noninvasive artery clamp for 15 minutes, released for 10 minutes, and then clamped for 10 minutes. Penicillin powder was then applied to suture muscles and skin. The sham operation group was not clamped, and other operations were the same as for the model group. […]
as §2

[4] = Test group vs model group, n = 12-14, dose not given
[5] = first listing in Table VII, Test group vs model group
[6] = second listing in Table VII, Test group vs model group
[7] = 2-h time point, oral, 0.72 mmol/kg
[8] = Test group vs model group, n = 15-17, dose not stated

[2H]C([2H])(CCS(=O)(=O)O)NC(=O)[C@@H](N)C(C)C [compound 4, 3-((L-valyl)amino)-3,3-dideuterium-1-propanesulfonic Acid]
SYP expression (SYP): significantly increased
Percentage of swimming distance, p compared with model group [1, 4]: p < 0.001
Spontaneous alternating response rate, p compared with model group [1, 4]: p < 0.001
Swimming time in target quadrant, p compared with model group [1, 4]: p < 0.05
The incubation period for entering the darkroom, p compared with model group [1, 4]: p < 0.05
Times of threading, p compared with model group [1, 4]: p < 0.05
Discrimination coefficient for new objects, p compared with model group [1, 5]: p < 0.05
Priority index for new objects, p compared with model group [1, 5]: p < 0.05
working memory, image recognition and memory, spatial memory and long-term memory impairment ([1]; rat model of dementia caused by multiple infarction): may improve
discrimination coefficient to new objects in the new object discrimination experiment ([1]; rats, gavage): can improve
escape latency of directional navigation ([1]; rats, gavage): can improve
number of errors entering the dark room in the dark avoidance experiment ([1]; rats, gavage): can improve
number of times of crossing the platform ([1]; rats, gavage): can improve
percentage of swimming distance in the target quadrant ([1]; rats, gavage): can improve
priority index to new objects in the new object discrimination experiment ([1]; rats, gavage): can improve
spontaneous alternating reaction rate in the Y maze ([1]; rats, gavage): can improve
swimming time in the target quadrant ([1]; rats, gavage): can improve
total swimming distance in the water maze test ([1]; rats, gavage): can improve
Discrimination coefficient for new objects, p compared with model group [1, 6]: p < 0.05
Priority index for new objects, p compared with model group [1, 6]: p < 0.01
concentration of metabolite (2-carboxy-1-ethanesulfonic acid) in plasma compared to 3APS (of natural abundance) [2, 7]: much lower
plasma drug concentration compared to 3APS (of natural abundance) [2, 7]: higher
plasma drug exposure compared to 3APS (of natural abundance) ([2]; mole-equivalent oral dose (0.72 mmol/kg), mouse plasma): improved plasma drug exposure significantly; also recorded: even greater improvement of drug exposure
increase of Cmax for the drug concentration ([2]; mole-equivalent oral dose, mouse plasma, versus 3APS of natural abundance): ~2 fold
drug metabolism / metabolic profile compared to 3APS ([2]; mole-equivalent oral dose, mouse): delayed drug metabolism
conversion of prodrug to compound 1 in the subject ([2]; oral, mouse plasma): converted easily to compound 1
arrangement and morphology of neuronal cells in hippocampal CA1 area and CA3 area [3]: significantly improved
deep staining pyknosis of nuclei in cerebral cortex [3]: significantly reduced
deep staining pyknosis of nuclei ([3]; hippocampal CA1 and CA3 area): significantly reduced
PSD95 expression, p compared with model group (PSD95; [8]): p < 0.001
expression of PSD95 (PSD95; compared with the model group): increased
Bax expression, p compared with model group (Bax; [8]): p < 0.01
expression of Bax (Bax; compared with the model group): reduced
